Among the data in patent publication US20260226086A1, “COMPOUNDS AND COMPOSITIONS AS STAT3 DEGRADERS AND USES THEREOF” (REGENTS OF THE UNIVERSITY OF MICHIGAN, priority 2023, published 2026) are IC50, Dmax and DC50 values, retold here.

Common to all, as to type: cell-based
One assay relates to SU-DHL-1 cells. The experiment in a line: CellTiter-Glo 2.0 cell viability assay, SU-DHL-1. The conditions noted are these: Homo sapiens, 96 h, 4 days. Here is the method:
For example, cell viability may be determined by CellTiter-Glo 2.0 Cell Viability Assay. In a typical procedure, cells seeded at certain amounts of cells (e.g., 1000 cells) per well are incubated with serially diluted compounds for certain period (e.g., 4 days) under certain conditions (e.g., at 37° C. with 5% CO2). At the end of treatment, CellTiter-Glo 2.0 is added to the wells and luminescence is acquired on TECAN SPARK plate reader. Untreated cells are used as control, Data points are fit with an equation (e.g., a four-parameter equation) to generate a concentration-response curve. IC50 values are calculated using a nonlinear regression analysis of the mean±SD from triplicate.
SU-DHL-1 and SUP-M2 cell viability was determined by CellTiter-Glo 2.0 Cell Viability Assay (Promega). SU-DHL-1 cell line was purchased from ATCC (Manassas, VA) and SUP-M2 (ACC-509) was purchased from DSMZ (Germany). RPMI 1640 medium and fetal bovine serum (FBS) were purchased from Gibco/Thermo Fisher Scientific. In a typical procedure, cells seeded at 1000 cells per well in 384-well white plates (Corning) were incubated with serially diluted compounds for 4 days at 37° C. with 5% C02. At the end of treatment, CellTiter-Glo 2.0 was added to the wells and luminescence was acquired on TECAN SPARK plate reader. Untreated cells were used as control. Data points were fit with a four-parameter equation to generate a concentration-response curve. IC50 values were calculated using a nonlinear regression analysis of the mean±SD from triplicate.
For orientation: ATP-based viability assays read luminescence as a measure of living cells.

The target in a further assay is T1, STAT3 (Homo sapiens, UniProt P40763).
T1 construct: This cell line is a clone created by using CRISPR-Cas9 to fuse HiBiT to the 3′ end of STAT3 in HeLa cells; host or cells: STAT3-HiBiT KI HeLa cell line (CRISPR-Cas9 knock-in clone)
The assay can be described thus: HiBiT assay, STAT3 degradation in STAT3-HiBiT KI HeLa cells. The note with it: 24 h; for DC50: read-out: STAT3 Degradation (HeLa 24 h HiBit) DC50. The method in brief: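 HeLa cells with CRISPR knock-in of HiBiT at the STAT3 C-terminus, 20000 cells/well, treated with serial compound dilutions for 24 h at 37 °C, 5% CO2. Remaining STAT3 read by Nano-Glo HiBiT lytic luminescence versus untreated cells; IC50 from four-parameter nonlinear fit of triplicate means.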

In a further assay the test system is SUP-M2 cells. The assay can be described thus: CellTiter-Glo 2.0 cell viability assay, SUP-M2. The conditions noted are these: 4 days. The method in brief:
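1000 cells per well exposed to serially diluted compounds for 4 days at 37 °C, 5% CO2. Viability measured by CellTiter-Glo 2.0 luminescence versus untreated cells; IC50 from four-parameter nonlinear fit of triplicate means.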

T1 sequence (P40763 whole entry): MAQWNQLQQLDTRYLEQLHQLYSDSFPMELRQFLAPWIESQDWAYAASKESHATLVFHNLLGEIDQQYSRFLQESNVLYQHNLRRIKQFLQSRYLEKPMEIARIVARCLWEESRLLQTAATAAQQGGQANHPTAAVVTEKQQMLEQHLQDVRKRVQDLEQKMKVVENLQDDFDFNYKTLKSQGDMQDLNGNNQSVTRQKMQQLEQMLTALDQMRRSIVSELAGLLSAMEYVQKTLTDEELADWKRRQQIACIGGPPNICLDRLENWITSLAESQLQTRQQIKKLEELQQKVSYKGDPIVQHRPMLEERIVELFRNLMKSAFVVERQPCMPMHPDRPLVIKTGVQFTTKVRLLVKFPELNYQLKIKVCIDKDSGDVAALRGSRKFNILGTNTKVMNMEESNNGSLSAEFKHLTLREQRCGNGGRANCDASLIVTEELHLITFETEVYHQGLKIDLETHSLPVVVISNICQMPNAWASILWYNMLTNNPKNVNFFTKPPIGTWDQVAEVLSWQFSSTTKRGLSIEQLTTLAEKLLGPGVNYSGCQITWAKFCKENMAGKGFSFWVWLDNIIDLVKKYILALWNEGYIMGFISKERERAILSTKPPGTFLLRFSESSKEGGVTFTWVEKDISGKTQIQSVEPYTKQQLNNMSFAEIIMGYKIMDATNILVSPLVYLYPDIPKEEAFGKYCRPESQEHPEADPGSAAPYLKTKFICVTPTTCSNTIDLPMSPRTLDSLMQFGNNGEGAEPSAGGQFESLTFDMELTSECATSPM

With `Cc1ncsc1-c1ccc([C@H](C)NC(=O)[C@@H]2C[C@@H](O)CN2C(=O)[C@@H](n2cc(CCCCC(=O)N3CC[C@H]4CC[C@@H](C(=O)N[C@@H](CCC(N)=O)COc5cccc(Cl)c5)N4C(=O)[C@@H](NC(=O)c4cc5cc(C(=O)P(=O)(O)O)ccc5[nH]4)C3)nn2)C(C)(C)C)cc1` [Compound 12, (2-(((5S,8S,10aR)-8-(((S)-5-amino-1-(3-chlorophenoxy)-5-oxopentan-2-yl)carbamoyl)-3-(5-(1-((S)-1-((2S,4R)-4-hydroxy-2-(((S)-1-(4-(4-methylthiazol-5-yl)phenyl)ethyl)carbamoyl)pyrrolidin-1-yl)-3,3-dimethyl-1-oxobutan-2-yl)-1H-1,2,3-triazol-4-yl)pentanoyl)-6-oxodecahydropyrrolo[1,2-a][1,5]diazocin-5-yl)carbamoyl)-1H-indole-5-carbonyl)phosphonic acid], the IC50 – broadly, the concentration that inhibits the measured activity by half – with SU-DHL-1 cells fell in the range of 100 to 1000 nM; in the assay with SUP-M2 cells (SUP-M2, 96 h), 10 to 100 nM. Also, the maximal degradation (Dmax) (commonly the largest share of the target that was removed) at 1 µM at STAT3 was above 80%. Further, on STAT3, the DC50 (as a rule, the concentration giving 50% degradation) was 10 to 100 nM.

With `Cc1ncsc1-c1ccc([C@H](C)NC(=O)[C@@H]2C[C@@H](O)CN2C(=O)[C@@H](n2cc(CCCCC(=O)N3CC[C@H]4CC[C@@H](C(=O)N[C@@H](CCC(N)=O)C(=O)NC(c5ccccc5)c5ccccc5)N4C(=O)[C@@H](NC(=O)c4cc5cc(C(=O)P(=O)(O)O)ccc5[nH]4)C3)nn2)C(C)(C)C)cc1` [Compound 13, (2-(((5S,8S,10aR)-8-(((S)-5-amino-1-(benzhydrylamino)-1,5-dioxopentan-2-yl)carbamoyl)-3-(5-(1-((S)-1-((2S,4R)-4-hydroxy-2-(((S)-1-(4-(4-methylthiazol-5-yl)phenyl)ethyl)carbamoyl)pyrrolidin-1-yl)-3,3-dimethyl-1-oxobutan-2-yl)-1H-1,2,3-triazol-4-yl)pentanoyl)-6-oxodecahydropyrrolo[1,2-a][1,5]diazocin-5-yl)carbamoyl)-1H-indole-5-carbonyl)phosphonic acid], in the assay with SU-DHL-1 cells, the IC50 is 100 to 1000 nM. Moreover, on STAT3, the greatest degradation seen (Dmax) at 1 µM was above 80% and the DC50 lay within 10 to 100 nM. This compound yielded a 50% inhibitory concentration (IC50) with SUP-M2 cells of 10 to 100 nM.

For `CCS(=O)(=O)c1ccc(CNC(=O)[C@H](CCC(N)=O)NC(=O)[C@@H]2CC[C@@H]3CCN(C(=O)CCCCCc4cn([C@H](C(=O)N5C[C@H](O)C[C@H]5C(=O)N[C@@H](C)c5ccc(-c6scnc6C)cc5)C(C)(C)C)nn4)C[C@H](NC(=O)c4cc5cc(C(=O)P(=O)(O)O)ccc5[nH]4)C(=O)N32)cc1` [Compound 14, (2-(((5S,8S,10aR)-8-(((S)-5-amino-1-((4-(ethylsulfonyl)benzyl)amino)-1,5-dioxopentan-2-yl)carbamoyl)-3-(6-(1-((S)-1-((2S,4R)-4-hydroxy-2-(((S)-1-(4-(4-methylthiazol-5-yl)phenyl)ethyl)carbamoyl)pyrrolidin-1-yl)-3,3-dimethyl-1-oxobutan-2-yl)-1H-1,2,3-triazol-4-yl)hexanoyl)-6-oxodecahydropyrrolo[1,2-a][1,5]diazocin-5-yl)carbamoyl)-1H-indole-5-carbonyl)phosphonic acid], the half-inhibitory concentration (IC50) in the assay on SU-DHL-1 cells was below 10 nM; in the assay with SUP-M2 cells (SUP-M2, 96 h), below 10 nM. The compound also returned a Dmax at 1 µM on STAT3 above 80%. Besides, the DC50 on STAT3 was below 10 nM.

The compound `CCS(=O)(=O)c1ccc(CNC(=O)[C@H](CCC(N)=O)NC(=O)[C@@H]2CC[C@@H]3CCN(C(=O)CCCCCCc4cn([C@H](C(=O)N5C[C@H](O)C[C@H]5C(=O)N[C@@H](C)c5ccc(-c6scnc6C)cc5)C(C)(C)C)nn4)C[C@H](NC(=O)c4cc5cc(C(=O)P(=O)(O)O)ccc5[nH]4)C(=O)N32)cc1` [Compound 15, (2-(((5S,8S,10aR)-8-(((S)-5-amino-1-((4-(ethylsulfonyl)benzyl)amino)-1,5-dioxopentan-2-yl)carbamoyl)-3-(7-(1-((S)-1-((2S,4R)-4-hydroxy-2-(((S)-1-(4-(4-methylthiazol-5-yl)phenyl)ethyl)carbamoyl)pyrrolidin-1-yl)-3,3-dimethyl-1-oxobutan-2-yl)-1H-1,2,3-triazol-4-yl)heptanoyl)-6-oxodecahydropyrrolo[1,2-a][1,5]diazocin-5-yl)carbamoyl)-1H-indole-5-carbonyl)phosphonic acid] returned a concentration for half-maximal inhibition (IC50) with SU-DHL-1 cells of 10 to 100 nM. On STAT3, the greatest degradation seen (Dmax) at 1 µM is above 80% and the half-maximal degradation concentration (DC50) is below 10 nM. The same compound displayed an IC50 in the assay on SUP-M2 cells (SUP-M2, 96 h) of 10 to 100 nM.

For the compound `CCS(=O)(=O)c1ccc(CNC(=O)[C@H](CCC(N)=O)NC(=O)[C@@H]2CC[C@@H]3CCN(C(=O)CCCCc4cn([C@H](C(=O)N5C[C@H](O)C[C@H]5C(=O)N[C@@H](CN5CCOCC5)c5ccc(-c6scnc6C)cc5)C(C)(C)C)nn4)C[C@H](NC(=O)c4cc5cc(C(=O)P(=O)(O)O)ccc5[nH]4)C(=O)N32)cc1` [Compound 16, (2-(((5S,8S,10aR)-8-(((S)-5-amino-1-((4-(ethylsulfonyl)benzyl)amino)-1,5-dioxopentan-2-yl)carbamoyl)-3-(5-(1-((S)-1-((2S,4R)-4-hydroxy-2-(((R)-1-(4-(4-methylthiazol-5-yl)phenyl)-2-morpho-linoethyl)carbamoyl)pyrrolidin-1-yl)-3,3-dimethyl-1-oxobutan-2-yl)-1H-1,2,3-triazol-4-yl)pentanoyl)-6-oxodecahydropyrrolo[1,2-a][1,5]diazocin-5-yl)carbamoyl)-1H-indole-5-carbonyl)phosphonic acid], the concentration for half-maximal inhibition (IC50) lay within 100 to 1000 nM with SU-DHL-1 cells and 100 to 1000 nM with SUP-M2 cells (SUP-M2, 96 h). The compound further came in with a Dmax at 1 µM on STAT3 above 80%. For the same compound, the half-maximal degradation concentration (DC50) at STAT3 fell in the range of 10 to 100 nM.

In the assay with SU-DHL-1 cells, `CCS(=O)(=O)c1ccc(CNC(=O)[C@H](CCC(N)=O)NC(=O)[C@@H]2CC[C@@H]3CCN(C(=O)CCCCc4cn([C@H](C(=O)N5C[C@H](O)C[C@H]5C(=O)N[C@@H](CCN5CCOCC5)c5ccc(-c6scnc6C)cc5)C(C)(C)C)nn4)C[C@H](NC(=O)c4cc5cc(C(=O)P(=O)(O)O)ccc5[nH]4)C(=O)N32)cc1` [Compound 17, (2-(((5S,8S,10aR)-8-(((S)-5-amino-1-((4-(ethylsulfonyl)benzyl)amino)-1,5-dioxopentan-2-yl)carbamoyl)-3-(5-(1-((S)-1-((2S,4R)-4-hydroxy-2-(((S)-1-(4-(4-methylthiazol-5-yl)phenyl)-3-morpholinopropyl)carbamoyl)pyrrolidin-1-yl)-3,3-dimethyl-1-oxobutan-2-yl)-1H-1,2,3-triazol-4-yl)pentanoyl)-6-oxodecahydropyrrolo[1,2-a][1,5]diazocin-5-yl)carbamoyl)-1H-indole-5-carbonyl)phosphonic acid] came in with a 50% inhibitory concentration (IC50) of 100 to 1000 nM. Besides, at STAT3, the greatest degradation seen (Dmax) at 1 µM is above 80% and the half-maximal degradation concentration (DC50) fell in the range of 100 to 1000 nM. In the assay with SUP-M2 cells (SUP-M2, 96 h), this compound returned a 50% inhibitory concentration (IC50) of 100 to 1000 nM.

For `CCS(=O)(=O)c1ccc(CNC(=O)[C@H](CCC(N)=O)NC(=O)[C@@H]2CC[C@@H]3CCN(C(=O)[C@H]4CC[C@H](c5cn([C@H](C(=O)N6C[C@H](O)C[C@H]6C(=O)N[C@@H](C)c6ccc(-c7scnc7C)cc6)C(C)(C)C)nn5)CC4)C[C@H](NC(=O)c4cc5cc(C(=O)P(=O)(O)O)ccc5[nH]4)C(=O)N32)cc1` [Compound 18, (2-(((5S,8S,10aR)-8-(((S)-5-amino-1-((4-(ethylsulfonyl)benzyl)amino)-1,5-dioxopentan-2-yl)carbamoyl)-3-((1S,4S)-4-(1-((S)-1-((2S,4R)-4-hydroxy-2-(((S)-1-(4-(4-methylthiazol-5-yl)phenyl)ethyl)carbamoyl)pyrrolidin-1-yl)-3,3-dimethyl-1-oxobutan-2-yl)-1H-1,2,3-triazol-4-yl)cyclohexane-1-carbonyl)-6-oxodecahydropyrrolo[1,2-a][1,5]diazocin-5-yl)carbamoyl)-1H-indole-5-carbonyl)phosphonic acid], the half-maximal inhibitory concentration (IC50) with SU-DHL-1 cells is 10 to 100 nM. In addition, at STAT3, the Dmax at 1 µM was above 80% and the DC50 fell in the range of 10 to 100 nM. The compound further displayed an IC50 in the assay with SUP-M2 cells (SUP-M2, 96 h) of 100 to 1000 nM.

In the case of `CC(=O)N1CC[C@H]2CC[C@@H](C(=O)N[C@@H](CCC(N)=O)COc3cccc(CCCc4cn([C@H](C(=O)N5C[C@H](O)C[C@H]5C(=O)N[C@@H](C)c5ccc(-c6scnc6C)cc5)C5CCCCC5)nn4)c3Cl)N2C(=O)[C@@H](NC(=O)c2cc3cc(C(=O)P(=O)(O)O)ccc3[nH]2)C1` [Compound 19, (2-(((5S,8S,10aR)-3-acetyl-8-(((S)-5-amino-1-(2-chloro-3-(3-(1-((S)-1-cyclohexyl-2-((2S,4R)-4-hydroxy-2-(((S)-1-(4-(4-methylthiazol-5-yl)phenyl)ethyl)carbamoyl)pyrrolidin-1-yl)-2-oxoethyl)-1H-1,2,3-triazol-4-yl)propyl)phenoxy)-5-oxopentan-2-yl)carbamoyl)-6-oxodecahydropyrrolo[1,2-a][1,5]diazocin-5-yl)carbamoyl)-1H-indole-5-carbonyl)phosphonic acid], the 50% inhibitory concentration (IC50) in the assay with SU-DHL-1 cells was below 10 nM. On STAT3, the Dmax at 1 µM was above 80% and the 50% degradation concentration (DC50) is below 10 nM. Besides, the IC50 in the assay on SUP-M2 cells (SUP-M2, 96 h) is below 10 nM.
